# Results reported in patent US12029725B2 (priority 2019, dated 2024).
# “Also recorded” adds a separate entry of the source. Like-named read-outs stand apart in the source and are kept apart here.
# Experiments:
# [1] = test system: pain due to moderate to severe osteoarthritis of the knee; test: Phase 1b double-blind study of intra-articular resiniferatoxin versus placebo: efficacy (WOMAC and NPRS pain scores); assay type: in vivo, human; conditions: for Patient reported WOMAC A1 and NPRS pain scores: all dose levels
# Procedure: The study, described as “Phase 1b double-blind study assesses safety and preliminary efficacy of intra-articular administration of resiniferatoxin versus placebo for the treatment of pain due to moderate to severe osteoarthritis of the knee,” was performed.
# Subjects with moderate to severe osteoarthritis diagnosed based on ACR diagnostic criteria and X-ray imaging were enrolled in a phase 1b double-blind study to assess the safety, tolerability and preliminary efficacy of intra-articular administration of resiniferatoxin or placebo for the treatment of moderate to severe pain due to osteoarthritis of the knee. Patients met the following criteria: (1) baseline pain score in the index knee (WOMAC pain subscale question A1) of ≥5 but ≤9 during four weeks prior to enrollment; (2) mean NPRS score of ≥5 but ≤9 during 8 of 10 days prior to enrollment; and (3) pain lasted for at least 6 months prior to enrollment.
# As of August 2019, the enrollment of all planned dose level cohorts was completed. 40 patients have enrolled in these dose-escalation cohorts, 30 receiving RTX and 10 receiving placebo (multicenter, randomized, double-blind, placebo controls). In each cohort, six patients received intraarticular RTX and two received a saline control (placebo arm). 69% are female and 31% are male. The median age is 62 (range 44-83), and the baseline NPRS A1 score was mean 6.5 (S.D. 1.5).
# The patients were treated with a one-time intraarticular dose of resiniferatoxin (RTX) or saline placebo at escalating dose level cohorts of 5 μg, 12.5 μg, 20 μg and 30 μg in 5 or 10 mL in dose escalation cohorts. For each 8-patient cohort, the first patient was considered a sentinel patient and received open-label drug. Upon confirmation of safety in the sentinel patient, the remaining 7 patients in the cohort were enrolled in a blinded fashion, 2 patients receiving placebo and 5 patients receiving RTX. After confirmation of safety at each dose level, the next higher dose level was opened for enrollment. Patients were followed for safety and efficacy over a 12-week period. Patients had the option to provide additional follow-up to 52 weeks. Efficacy was assessed using the patient reported WOMAC pain scores and NPRS pain scores. As per protocol, the treatment assignment could be unblinded at week 12.
# [2] = Pharmacokinetics of RTX after intra-articular injection in the Phase 1b study; assay type: in vivo, human; conditions: for Number of RTX subjects with quantifiable PK / Number of subjects with BQL of RTX: 6 subjects with PK measured; for Cmax / AUC(0-t): human, in vivo, other: intra-articular injection
# [3] = test system: subjects with moderate to severe osteoarthritis of the knee; conditions: for Procedure-associated pain (post-procedural pain and injection site pain), patients reporting: RTX patients; for Procedure-associated pain reported as mild / Procedure-associated pain reported as moderate: RTX treated patients
# [4] = 30 μg, Cohort 6, 30 μg/5 or 10 ml, subject with quantifiable PK
structure (smiles),measurement,setting,value
"C=C(C)[C@]12C[C@@H](C)[C@@]34O[C@](Cc5ccccc5)(O[C@@H]1[C@@H]3C=C(COC(=O)Cc1ccc(O)c(OC)c1)C[C@]1(O)C(=O)C(C)=C[C@@H]41)O2 [RTX, resiniferatoxin]","Pain at walking (10 point WOMAC pain scale), mean pain score lower versus control","[1]; 5 μg RTX, Day 84",4.7 points
same,"WOMAC A-C pain index, least squares mean difference versus placebo (MMRM)","[1]; 12.5 μg dose, 12 weeks, p=0.016, N=6",−14.20
same,"WOMAC A1 score, least squares mean difference versus placebo (MMRM)","[1]; 12.5 μg dose, 12 weeks, p=0.029, N=6",−2.70
same,"NPRS score, least squares mean difference versus placebo (MMRM)","[1]; 12.5 μg dose, 12 weeks, p=0.051, N=6",−2.29
same,"Weekly average NPRS pain score, mean change (standard deviation) from baseline to week 12","[1]; Cohort 4, 12.5 μg/5 ml, FIG. 2",−5.30 (1.94)
same,"Weekly average WOMAC question A1, mean change (standard deviation) from baseline to week 12","[1]; Cohort 4, 12.5 μg/5 ml, FIG. 3",−5.67 (1.51)
same,Patient reported WOMAC A1 and NPRS pain scores,[1]; all cohorts incl. volume and dose expansion cohorts,reduction
same,Improvements in patients of all dose groups,"[1]; all dose groups, ongoing trial",rapid and sustainable improvements
same,Patient reported WOMAC A1 and NPRS pain scores,"[1]; dose escalation cohorts (N=40), available unblinded data",reduction
same,Sustained clinical benefits / pain reduction sustained over time,"[1]; lowest dose (5 μg), determined at 84 days",sustained clinical benefits; also recorded: sustained over time
same,Onset of pain relief,"[1]; lowest dose tested, single 5 μg RTX injection into the knee joint",day following injection; also recorded: the day following drug administration
same,Patients reporting positive clinical benefits in pain reduction,"[1]; patients treated with the active drug, to date",a majority
same,"Patients achieving >70% reduction in pain versus baseline, NPRS score",[1]; pooled RTX-treated patients,41%
same,"Patients achieving >70% reduction in pain versus baseline, WOMAC A1 score",[1]; pooled RTX-treated patients,54%
same,"Weekly average NPRS pain score, change from baseline to week 12, difference versus pooled placebo","[1]; week 12, range over dose level cohorts",−0.34 to −2.29
same,"WOMAC question A1 (pain on walking on flat surface), least squares mean difference in change from baseline relative to placebo","[1]; week 12, range over dose level cohorts, 9 placebo, 28 RTX",−0.38 to −2.70 points
same,Number of RTX subjects with quantifiable PK,"[2]; Cohort 1, 5 μg/5 ml",1
same,Number of subjects with BQL of RTX,"[2]; Cohort 1, 5 μg/5 ml",5
same,Number of RTX subjects with quantifiable PK,"[2]; Cohort 4, 12.5 μg/5 ml",0
same,Number of subjects with BQL of RTX,"[2]; Cohort 4, 12.5 μg/5 ml",6
same,Number of RTX subjects with quantifiable PK,"[2]; Cohort 4a, 12.5 μg/10 ml",1
same,Number of subjects with BQL of RTX,"[2]; Cohort 4a, 12.5 μg/10 ml",5
same,Number of RTX subjects with quantifiable PK,"[2]; Cohort 5, 20 μg/5 ml",2
same,Number of subjects with BQL of RTX,"[2]; Cohort 5, 20 μg/5 ml",4
same,Number of RTX subjects with quantifiable PK,"[2]; Cohort 6, 30 μg/5 or 10 ml",1
same,Number of subjects with BQL of RTX,"[2]; Cohort 6, 30 μg/5 or 10 ml",5
same,Detectability of RTX (pharmacokinetic data),"[2]; all PK cohorts, intra-articular injection",undetectable in most patients
same,Cmax,"[2]; 5 μg, Cohort 1, 5 μg/5 ml, subject with quantifiable PK",0.121 ng/mL
same,AUC(0-t),"[2]; 5 μg, Cohort 1, 5 μg/5 ml, subject with quantifiable PK, read-out: AUC (0-6 hr)",0.509 ng·h/mL
same,Cmax,"[2]; 12.5 μg, Cohort 4a, 12.5 μg/10 ml, subject with quantifiable PK",0.103 ng/mL
same,AUC(0-t),"[2]; 12.5 μg, Cohort 4a, 12.5 μg/10 ml, subject with quantifiable PK, read-out: AUC (0-6 hr)",0.146 ng·h/mL
same,Cmax,"[2]; 20 μg, Cohort 5, 20 μg/5 ml, first subject with quantifiable PK",0.071 ng/mL
same,AUC(0-t),[2]; [4],0.0854 ng·h/mL
same,Cmax,[2]; [4],0.0878 ng/mL
same,DMC assessment,"[3]; Cohort 1, 5 μg",No DLTs
same,Notable AE's,"[3]; Cohort 1, 5 μg",None
same,DMC assessment,"[3]; Cohort 2, 12.5 μg",No DLTs
same,Notable AE's,"[3]; Cohort 2, 12.5 μg",None
same,DMC assessment,"[3]; Cohort 3, 12.5 μg (in 10 ml)",No DLTs
same,Notable AE's,"[3]; Cohort 3, 12.5 μg (in 10 ml)",None
same,DMC assessment,"[3]; Cohort 4, 20 μg",No DLTs
same,Notable AE's,"[3]; Cohort 4, 20 μg",None
same,DMC assessment,"[3]; Cohort 5, 30 μg",No DLTs
same,Notable AE's,"[3]; Cohort 5, 30 μg",None
same,"TEAE Areflexia, Mild: frequency",[3]; RTX All Cohorts (N = 57),(3.5%)
same,"TEAE Areflexia, Mild: number of subjects",[3]; RTX All Cohorts (N = 57),2
same,"TEAE Areflexia, Moderate: frequency",[3]; RTX All Cohorts (N = 57),(3.5%)
same,"TEAE Areflexia, Moderate: number of subjects",[3]; RTX All Cohorts (N = 57),2
same,"TEAE Arthralgia, Mild: frequency",[3]; RTX All Cohorts (N = 57),(7.0%)
same,"TEAE Arthralgia, Mild: number of subjects",[3]; RTX All Cohorts (N = 57),4
same,"TEAE Arthralgia, Moderate: frequency",[3]; RTX All Cohorts (N = 57),(1.8%)
same,"TEAE Arthralgia, Moderate: number of subjects",[3]; RTX All Cohorts (N = 57),1
same,"TEAE EOG QTc prolonged, Mild: frequency",[3]; RTX All Cohorts (N = 57),(5.3%)
same,"TEAE EOG QTc prolonged, Mild: number of subjects",[3]; RTX All Cohorts (N = 57),3
same,"TEAE Headache, Mild: frequency",[3]; RTX All Cohorts (N = 57),(5.3%)
same,"TEAE Headache, Mild: number of subjects",[3]; RTX All Cohorts (N = 57),3
same,"TEAE Hypertension, Mild: frequency",[3]; RTX All Cohorts (N = 57),(7.0%)
same,"TEAE Hypertension, Mild: number of subjects",[3]; RTX All Cohorts (N = 57),4
same,"TEAE Hypertension, Moderate: frequency",[3]; RTX All Cohorts (N = 57),(7.0%)
same,"TEAE Hypertension, Moderate: number of subjects",[3]; RTX All Cohorts (N = 57),4
same,"TEAE Hypoesthesia, Mild: frequency",[3]; RTX All Cohorts (N = 57),(8.8%)
same,"TEAE Hypoesthesia, Mild: number of subjects",[3]; RTX All Cohorts (N = 57),5
same,"TEAE Nausea, Mild: frequency",[3]; RTX All Cohorts (N = 57),(31.6%)
same,"TEAE Nausea, Mild: number of subjects",[3]; RTX All Cohorts (N = 57),18
same,"TEAE Nausea, Moderate: frequency",[3]; RTX All Cohorts (N = 57),(3.5%)
same,"TEAE Nausea, Moderate: number of subjects",[3]; RTX All Cohorts (N = 57),2
same,"TEAE Procedural pain, Mild: frequency",[3]; RTX All Cohorts (N = 57),(64.9%)
same,"TEAE Procedural pain, Mild: number of subjects",[3]; RTX All Cohorts (N = 57),37
same,"TEAE Procedural pain, Moderate: frequency",[3]; RTX All Cohorts (N = 57),(26.3%)
same,"TEAE Procedural pain, Moderate: number of subjects",[3]; RTX All Cohorts (N = 57),15
same,"TEAE Vomiting, Mild: frequency",[3]; RTX All Cohorts (N = 57),(14.0%)
same,"TEAE Vomiting, Mild: number of subjects",[3]; RTX All Cohorts (N = 57),8
same,"TEAE Vomiting, Moderate: frequency",[3]; RTX All Cohorts (N = 57),(3.5%)
same,"TEAE Vomiting, Moderate: number of subjects",[3]; RTX All Cohorts (N = 57),2
same,Dose-limiting toxicities,[3]; all cohorts,No dose-limiting toxicities
same,Maximum tolerated dose,[3]; all cohorts,not identified
same,Relationship between adverse events and dose,[3]; all cohorts,no apparent relationship
same,"Procedure-associated pain (post-procedural pain and injection site pain), patients reporting",[3]; all cohorts,91%
same,Procedure-associated pain reported as mild,[3]; all cohorts,65%
same,Procedure-associated pain reported as moderate,[3]; all cohorts,26%
same,Dose-limiting toxicities,[3]; dose escalation cohorts (N=40),No dose-limiting toxicities
same,Maximum tolerated dose,[3]; dose escalation cohorts (N=40),not identified
same,Relationship between adverse events and dose,[3]; dose escalation cohorts (N=40),no apparent relationship
same,"Procedure-associated pain (post-procedural pain and injection site pain), patients reporting",[3]; dose escalation cohorts (N=40),100%
same,Procedure-associated pain reported as mild,[3]; dose escalation cohorts (N=40),55%
same,Procedure-associated pain reported as moderate,[3]; dose escalation cohorts (N=40),45%
same,Adverse events of interest,"[3]; initial results, any dose group",nor adverse events of interest noted
same,Dose limiting toxicities (DLTs),"[3]; initial results, any dose group, to date",No dose limiting toxicities
